From US20230339900A1, “CASEIN KINASE 1 DELTA MODULATORS” (Janssen Pharmaceutica NV, priority 2020, published 2023)

Columns and labels:
[1] = target: human recombinant GST cleaved CSNK1D (Homo sapiens (Human), UniProt P48730); test: Purified enzyme assay (ADP-Glo Kinase Assay); type: biochemical; settings: 2 nM CSNK1D, peptide substrate 150 μM, ATP 20 μM, 45 minutes room temperature
Protocol: In this assay, CSNK1D phosphorylates a substrate peptide PLSRTL-pS-VASLPGL in the presence of ATP. […] This assay monitors CSNK1D kinase activity by measuring the amount of ADP produced in the assay. A substrate mix is prepared by diluting peptide substrate (final concentration 150 μM) with ATP (final concentration 20 μM) in assay buffer (50 mM Tris/HCl pH 7.4+10 mM MgCl2+1 mM DTT+0.1% BSA). The substrate mix is added to each well of a low volume, 384-well, white opaque plate. Test compounds were diluted in HBSS and added in a dose-response to the plate. To start the reaction, 2 nM of constitutively active human recombinant GST cleaved CSNK1D (University of Dundee, clone DU 19064, stored at 0.28 mg/mL in 50 mM Tris/HCl pH 7.5, 150 mM NaCl, 270 mM Sucrose, 0.1 mM EGTA, 0.1% 2-mercaptoethanol, 0.02% Brij-35.1 mM benzamidine, 0.2 mM PMSF) was added to each well and the plate centrifuged for 5 minutes at 1500 rpm. The total volume of each reaction is 5 ul (2 μL of substrate mix, 1 μL of diluted compounds, and 2 μL of human recombinant CSNK1D). The plates are incubated for 45 minutes at room temperature.
ADP was quantified using the ADP-Glo™ Kinase Assay. ADP-Glo Reagent (5 μL) was added to each well. After a 1 hour incubation at room temperature, Kinase Detection Reagent (10 μL) was added to each well and incubated for 30 minutes. Luminescence was measured on the Perkin Elmer Wallac EnVision 2104 Multi-label Reader. The raw data from the Envision is used to calculate percent activity.

[2] = target: human CSNK1D tagged with nanoluciferase (Homo sapiens (Human), UniProt P48730); test: Whole Cell nBRET CSNK1D Binding Assay; settings: living CHO cells stably expressing human CSNK1D-nanoluciferase; NanoBret tracer 130 nM; 2 hours 37° C.; read-out: CSNK1D BRET IC50
human CSNK1D tagged with nanoluciferase, sequence (P48730 whole entry): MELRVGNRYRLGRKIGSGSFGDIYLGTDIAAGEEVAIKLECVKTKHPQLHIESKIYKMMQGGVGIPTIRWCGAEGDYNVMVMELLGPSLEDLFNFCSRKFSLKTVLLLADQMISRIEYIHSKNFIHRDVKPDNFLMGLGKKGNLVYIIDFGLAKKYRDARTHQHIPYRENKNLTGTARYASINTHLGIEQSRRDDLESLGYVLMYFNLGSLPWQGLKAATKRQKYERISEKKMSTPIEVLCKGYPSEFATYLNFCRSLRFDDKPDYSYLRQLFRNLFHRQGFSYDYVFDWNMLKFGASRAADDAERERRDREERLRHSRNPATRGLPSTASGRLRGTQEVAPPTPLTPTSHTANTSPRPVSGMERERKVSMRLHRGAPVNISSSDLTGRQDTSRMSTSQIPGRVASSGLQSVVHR
Protocol: This cellular binding assay uses a bioluminescence resonance energy transfer to measure human CSNK1D binding activity in living Chinese Hamster Ovary (CHO) cells that are stably expressing human CSNK1D tagged with nanoluciferase. The cells were grown to confluency in growth media (DMEM:F12, 50 u/mLPen/Strep, […] glutamine, and 0.6 mg/mL G418) in 10 cm^2 dishes. Cells were seeded onto white, opaque 384-well plates (Corning, cat #3704) at a density of 8,000 cells/well in serum-free OptiMEM and left to incubated overnight at 37° C., […]. The next day, test compounds were added in a dose response to the plate followed by a NanoBret tracer (130 nM). The plate is mixed on an orbital shaker for 30 seconds, then placed in a 37° C. incubator for 2 hours. NanoBret Nano-Glo Substrate solution (20 μL) is added to all wells and incubated for 3 minutes at room temperature. Donor (450 nm) and acceptor (630 nm) emissions are then measured within 10 minutes using a ClarioStar plate reader. The data is used to calculate millibret units, defined as (E630/E450)*1000. Bret emissions are then graphed against the log of compound concentrations and these graphs are used to determine the IC50 of each compound.

human recombinant GST cleaved CSNK1D, sequence (P48730 whole entry): as above

SMILES	AC50 [1]	IC50 [2]
Cn1cc(-c2ccnc3cc(OC(F)(F)F)ccc23)c(-c2ccc(F)cn2)n1 [Example 109, 4-[3-(5-Fluoro-2-pyridyl)-1-methyl-pyrazol-4-yl]-7-(trifluoromethoxy)quinoline]	41 nM	468 nM
Cc1cc(-c2cn(C3CC3)nc2-c2ccc(F)cn2)c2cn[nH]c2n1 [Example 134, 4-[1-Cyclopropyl-3-(5-fluoro-2-pyridyl)pyrazol-4-yl]-6-methyl-1H-pyrazolo[3,4-b]pyridine]	30 nM	329 nM
Cn1cc(-c2ccnc3[nH]c(C4(O)CCOC4)cc23)c(-c2ccc(F)cn2)n1 (racemic) [Example 96, (R/S)-3-(4-(3-(5-Fluoropyridin-2-yl)-1-methyl-1H-pyrazol-4-yl)-1H-pyrrolo[2,3-b]pyridin-2-yl)tetrahydrofuran-3-ol]	4 nM	148 nM
COc1nc(-c2nn(C)cc2-c2cc(C)nc3[nH]ncc23)ccc1Cl [Example 42, 4-(3-(5-Chloro-6-methoxypyridin-2-yl)-1-methyl-1H-pyrazol-4-yl)-6-methyl-1H-pyrazolo[3,4-b]pyridine]	134 nM	2770 nM
Cn1cc(-c2ccnc3cc(Br)cnc23)c(-c2ccc(F)cn2)n1 [Example 153, 3-Bromo-8-[3-(5-fluoro-2-pyridyl)-1-methyl-pyrazol-4-yl]-1,5-naphthyridine]	39 nM	579 nM
Cn1cc(-c2ccnc3[nH]ncc23)c(-c2ccc(Cl)cn2)n1 [Example 25, 4-(3-(5-Chloropyridin-2-yl)-1-methyl-1H-pyrazol-4-yl)-1H-pyrazolo[3,4-b]pyridine]	693 nM	306 nM
Cc1cc(-c2cn(C(F)F)nc2-c2ccc(F)cn2)c2cn[nH]c2n1 [Example 67, 4-(1-(Difluoromethyl)-3-(5-fluoropyridin-2-yl)-1H-pyrazol-4-yl)-6-methyl-1H-pyrazolo[3,4-b]pyridine]	18 nM	1310 nM
Cn1cc(-c2ccnc3ccsc23)c(-c2ccc(F)cn2)n1 [Example 118, 7-(3-(5-Fluoropyridin-2-yl)-1-methyl-1H-pyrazol-4-yl)thieno[3,2-b]pyridine]	24 nM	376 nM
Cn1cc(-c2ccnc3cnccc23)c(-c2ccc(F)cn2)n1 [Example 112, 4-[3-(5-Fluoro-2-pyridyl)-1-methyl-pyrazol-4-yl]-1,7-naphthyridine]	51 nM	953 nM
CCn1cc(-c2ccnc3[nH]ccc23)c(-c2ccc(F)cn2)n1 [Example 55, 4-[1-Ethyl-3-(5-fluoro-2-pyridyl)pyrazol-4-yl]-1H-pyrrolo[2,3-b]pyridine]	7 nM	93 nM
Cn1cc(-c2ccnc3[nH]ccc23)c(-c2ccc(F)nc2)n1 [Example 28, 4-[3-(6-Fluoro-3-pyridyl)-1-methyl-pyrazol-4-yl]-1H-pyrrolo[2,3-b]pyridine]	8 nM	165 nM
Cc1ccc(-c2nn(C)cc2-c2ccnc3[nH]ccc23)cn1 [Example 22, 4-[1-Methyl-3-(6-methyl-3-pyridyl)pyrazol-4-yl]-1H-pyrrolo[2,3-b]pyridine]	44 nM	1170 nM

Continued, values first:

AC50 [1]	IC50 [2]	SMILES
123 nM	3660 nM	Cn1cc(-c2ccnc3[nH]cc(C4COC4)c23)c(-c2ccc(F)cn2)n1 [Example 93, 4-[3-(5-Fluoro-2-pyridyl)-1-methyl-pyrazol-4-yl]-3-(oxetan-3-yl)-1H-pyrrolo[2,3-b]pyridine]
31 nM	264 nM	Cn1cc(-c2ccnc3cc(C(F)(F)F)ccc23)c(-c2ccc(F)cn2)n1 [Example 107, 4-[3-(5-Fluoro-2-pyridyl)-1-methyl-pyrazol-4-yl]-7-(trifluoromethyl)quinoline]
19 nM	393 nM	COCCn1cc(-c2cc(C)nc3[nH]ncc23)c(-c2ccc(F)cn2)n1 [Example 64, 4-(3-(5-Fluoropyridin-2-yl)-1-(2-methoxyethyl)-1H-pyrazol-4-yl)-6-methyl-1H-pyrazolo[3,4-b]pyridine]
19 nM	653 nM	Cn1cc(-c2c(C3COC3)cnc3[nH]ccc23)c(-c2ccc(F)cn2)n1 [Example 91, 4-(3-(5-Fluoropyridin-2-yl)-1-methyl-1H-pyrazol-4-yl)-5-(oxetan-3-yl)-1H-pyrrolo[2,3-b]pyridine]
28 nM	491 nM	COc1cc2c(-c3cn(C)nc3-c3ccc(F)cn3)ccnc2cc1F [Example 111, 7-Fluoro-4-[3-(5-fluoro-2-pyridyl)-1-methyl-pyrazol-4-yl]-6-methoxy-quinoline]
39 nM	564 nM	Cn1cc(-c2ccnc3cc(F)ccc23)c(-c2ccc(F)cn2)n1 [Example 106, 7-Fluoro-4-[3-(5-fluoro-2-pyridyl)-1-methyl-pyrazol-4-yl]quinoline]
13 nM	227 nM	Cn1nc(-c2ccc(F)cn2)c(-c2ccnc3[nH]ccc23)c1C1CCC1 [Example 52, 4-(5-Cyclobutyl-3-(5-fluoropyridin-2-yl)-1-methyl-1H-pyrazol-4-yl)-1H-pyrrolo[2,3-b]pyridine]
83 nM	3130 nM	Cn1cc(-c2ccnc3[nH]ccc23)c(-c2cncs2)n1 [Example 14, 5-(1-Methyl-4-(1H-pyrrolo[2,3-b]pyridin-4-yl)-1H-pyrazol-3-yl)thiazole]
18 nM	506 nM	Cc1cc(-c2cn(C)nc2-c2cncc(Cl)c2)c2cn[nH]c2n1 [Example 139, 4-[3-(5-Chloro-3-pyridyl)-1-methyl-pyrazol-4-yl]-6-methyl-1H-pyrazolo[3,4-b]pyridine]
24 nM	388 nM	Cc1cccc(-c2nn(C)cc2-c2cc(C)nc3[nH]ncc23)n1 [Example 30, 6-Methyl-4-(1-methyl-3-(6-methylpyridin-2-yl)-1H-pyrazol-4-yl)-1H-pyrazolo[3,4-b]pyridine]
50 nM	678 nM	Cn1cc(-c2ccnc3[nH]ccc23)c(-c2ccns2)n1 [Example 12, 5-(1-Methyl-4-(1H-pyrrolo[2,3-b]pyridin-4-yl)-1H-pyrazol-3-yl)isothiazole]
1540 nM	> 10000 nM	Cc1cc(-c2nn(C)cc2-c2cc(C)nc3[nH]ncc23)cnn1 [Example 143, 6-Methyl-4-[1-methyl-3-(6-methylpyridazin-4-yl)pyrazol-4-yl]-1H-pyrazolo[3,4-b]pyridine]
9 nM	315 nM	CC(=O)Nc1cc(-c2cn(C)nc2-c2ccc(F)cn2)ccn1 [Example 115, N-(4-(3-(5-Fluoropyridin-2-yl)-1-methyl-1H-pyrazol-4-yl)pyridin-2-yl)acetamide]
1040 nM	> 10000 nM	Cc1cc(-c2cn(C)nc2-c2ccncc2C)c2cn[nH]c2n1 [Example 136, 6-Methyl-4-[1-methyl-3-(3-methyl-4-pyridyl)pyrazol-4-yl]-1H-pyrazolo[3,4-b]pyridine]
15 nM	78 nM	Cn1cc(-c2ccnc3[nH]ccc23)c(-c2ncc(F)cc2F)n1 [Example 37, 4-[3-(3,5-Difluoro-2-pyridyl)-1-methyl-pyrazol-4-yl]-1H-pyrrolo[2,3-b]pyridine]
92 nM	797 nM	Cn1cc(-c2ccnc3[nH]ncc23)c(-c2ccncc2F)n1 [Example 19, 4-[3-(3-Fluoro-4-pyridyl)-1-methyl-pyrazol-4-yl]-1H-pyrazolo[3,4-b]pyridine]
